Reference: patent US20030176314A1, “Compounds for the treatment of pain” (priority 2001, published 2003)
Structures can show the parent of a compound that is named as a salt. Blank lines part the entries; values can stand above or below the compound they belong to.

Tests used:
[1] = molecular target: N-methyl-D-aspartate (NMDA) receptor channel complex; assay: Binding at native NMDA receptor channels; design: species or system rat; details: Table 8
Procedure: NMDA Receptor Channels: The methods to determine binding affinity at native N-methyl-D-aspartate (NMDA) receptor channels are described in Wong E. H. et al. (1988), the disclosure of which is hereby incorporated by reference in its entirety into this application.
(§1) The binding affinity (Ki) of these compounds were tested according to the protocols described herein at the following receptors; human α1A, α1B, α1D, α2A, α2B, and α2C adrenergic receptors; human Y1, Y2, Y4, and Y5 receptors; and N-Methyl-D-aspartic acid (NMDA) receptor channels. The binding interactions of these compounds were additionally tested at the norepinephrine (NE) transporter (NE uptake) and serotonin (5-hydroxytryptamine (5HT)) transporter (5HT uptake) according to protocols described herein

[2] = molecular target: T1, human α2A adrenergic receptor (Homo sapiens, UniProt P08913); assay: Binding at human α2A adrenergic receptor; details: Table 8; read-out: hα2A Ki
T1 construct: host or cells: LM(tk-) cells, line L-α2A
T1 sequence (P08913 1-465): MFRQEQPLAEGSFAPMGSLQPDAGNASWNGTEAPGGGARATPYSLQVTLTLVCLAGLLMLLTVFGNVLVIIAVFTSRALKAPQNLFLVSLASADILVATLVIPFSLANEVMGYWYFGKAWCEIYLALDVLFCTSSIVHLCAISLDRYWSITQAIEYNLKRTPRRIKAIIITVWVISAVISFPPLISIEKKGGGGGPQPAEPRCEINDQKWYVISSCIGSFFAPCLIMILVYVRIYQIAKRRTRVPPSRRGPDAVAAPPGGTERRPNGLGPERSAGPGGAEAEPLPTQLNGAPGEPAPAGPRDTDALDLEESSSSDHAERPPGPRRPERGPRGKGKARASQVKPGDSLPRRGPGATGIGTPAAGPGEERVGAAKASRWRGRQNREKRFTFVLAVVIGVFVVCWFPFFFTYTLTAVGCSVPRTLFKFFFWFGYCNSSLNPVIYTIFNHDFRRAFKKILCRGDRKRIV
Excerpt: (§2) α2 Human Adrenergic Receptors: To determine the binding of compounds to human α2 receptors, LM(tk−) cell lines stably transfected with the genes encoding the α2A, α2B, and α2C receptors were used. The cell line expressing the α2A receptor is designated L-α2A, and was deposited on Nov. 6, 1992, under ATCC Accession No. CRL 11180. The cell line expressing the α2B receptor is designated L-NGC-α2B, and was deposited on Oct. 25, 1989, under ATCC Accession No. CRL 10275. The cell line expressing the α2C receptor is designated L-α2C, and was deposited on Nov. 6, 1992, under ATCC Accession No. CRL-11181. Cell lysates were prepared as described herin, and suspended in 25 mM glycyiglycine buffer (pH 7.6 at room temperature). Equilibrium competition binding assay were performed using […] (0.5 nM), and nonspecific binding was determined by incubation with 10 μM phentolamine. The bound radioligand was separated by filtration through GF/B filters using a cell harvester.
as §1

[3] = molecular target: T2, rat NPFF2 receptor (Rattus norvegicus, UniProt Q9EQD2); assay: Functional assay (agonist potency, intrinsic activity) at cloned rat NPFF2 receptor; type: cell-based; details: Table 7, intrinsic activity
T2 construct: The full-length NPFF2 was amplified from rat spinal cord cDNA; expressed in transfected cells; host or cells: not given
T2 sequence (Q9EQD2 whole entry): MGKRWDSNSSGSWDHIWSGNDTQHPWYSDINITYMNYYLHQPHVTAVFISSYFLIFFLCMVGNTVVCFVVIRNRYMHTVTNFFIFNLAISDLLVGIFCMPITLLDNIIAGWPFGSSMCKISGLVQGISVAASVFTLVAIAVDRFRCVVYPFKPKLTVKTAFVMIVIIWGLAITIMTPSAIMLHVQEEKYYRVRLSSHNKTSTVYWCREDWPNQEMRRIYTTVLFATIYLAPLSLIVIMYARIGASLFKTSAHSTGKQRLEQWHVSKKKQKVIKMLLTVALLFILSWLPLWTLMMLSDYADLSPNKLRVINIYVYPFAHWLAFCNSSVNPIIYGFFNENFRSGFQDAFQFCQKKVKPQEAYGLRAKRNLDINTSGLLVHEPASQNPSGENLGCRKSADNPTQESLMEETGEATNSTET

[4] = molecular target: T3, human α2C adrenergic receptor (Homo sapiens, UniProt P18825); assay: Binding at human α2C adrenergic receptor; details: Table 8; read-out: hα2C Ki
T3 construct: host or cells: LM(tk-) cells, line L-α2C
T3 sequence (P18825 1-462): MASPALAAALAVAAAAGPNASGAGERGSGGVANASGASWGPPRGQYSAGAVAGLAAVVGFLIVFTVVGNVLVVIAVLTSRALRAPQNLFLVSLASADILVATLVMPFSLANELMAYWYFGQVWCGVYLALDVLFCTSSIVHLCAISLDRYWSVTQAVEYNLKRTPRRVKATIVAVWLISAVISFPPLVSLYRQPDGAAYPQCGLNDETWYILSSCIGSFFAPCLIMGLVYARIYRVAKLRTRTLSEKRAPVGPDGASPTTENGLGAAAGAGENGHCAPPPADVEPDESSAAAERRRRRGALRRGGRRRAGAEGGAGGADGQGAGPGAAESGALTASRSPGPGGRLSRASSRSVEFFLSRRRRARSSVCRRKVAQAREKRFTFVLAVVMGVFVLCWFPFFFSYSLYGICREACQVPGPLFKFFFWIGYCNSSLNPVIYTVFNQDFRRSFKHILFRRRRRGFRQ
Excerpt: as §2, §1

[5] = molecular target: T4, human α2B adrenergic receptor (Homo sapiens, UniProt P18089); assay: Binding at human α2B adrenergic receptor; details: Table 8; read-out: hα2B Ki
T4 construct: host or cells: LM(tk-) cells, line L-NGC-α2B
T4 sequence (P18089 1-450): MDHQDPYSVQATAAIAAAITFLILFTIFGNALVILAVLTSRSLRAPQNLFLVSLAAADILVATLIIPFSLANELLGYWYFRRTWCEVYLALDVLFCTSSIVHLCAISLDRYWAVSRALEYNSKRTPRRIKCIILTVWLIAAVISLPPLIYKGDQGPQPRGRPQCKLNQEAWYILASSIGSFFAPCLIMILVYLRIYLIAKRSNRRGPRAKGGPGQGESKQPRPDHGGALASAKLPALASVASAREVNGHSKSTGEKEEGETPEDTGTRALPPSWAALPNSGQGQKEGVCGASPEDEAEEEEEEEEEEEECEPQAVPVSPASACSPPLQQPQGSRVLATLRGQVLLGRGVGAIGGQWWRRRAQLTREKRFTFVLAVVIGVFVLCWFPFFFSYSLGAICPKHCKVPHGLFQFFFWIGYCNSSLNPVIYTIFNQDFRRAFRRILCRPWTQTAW
Excerpt: as §2, §1

[6] = molecular target: T5, norepinephrine (NE) transporter (Rattus norvegicus, UniProt Q63380); assay: Binding at native norepinephrine transporter (NE uptake); details: Table 8
T5 construct: evaluated at native, tissue-derived transporters; from tissue
T5 sequence (Q63380 1-617): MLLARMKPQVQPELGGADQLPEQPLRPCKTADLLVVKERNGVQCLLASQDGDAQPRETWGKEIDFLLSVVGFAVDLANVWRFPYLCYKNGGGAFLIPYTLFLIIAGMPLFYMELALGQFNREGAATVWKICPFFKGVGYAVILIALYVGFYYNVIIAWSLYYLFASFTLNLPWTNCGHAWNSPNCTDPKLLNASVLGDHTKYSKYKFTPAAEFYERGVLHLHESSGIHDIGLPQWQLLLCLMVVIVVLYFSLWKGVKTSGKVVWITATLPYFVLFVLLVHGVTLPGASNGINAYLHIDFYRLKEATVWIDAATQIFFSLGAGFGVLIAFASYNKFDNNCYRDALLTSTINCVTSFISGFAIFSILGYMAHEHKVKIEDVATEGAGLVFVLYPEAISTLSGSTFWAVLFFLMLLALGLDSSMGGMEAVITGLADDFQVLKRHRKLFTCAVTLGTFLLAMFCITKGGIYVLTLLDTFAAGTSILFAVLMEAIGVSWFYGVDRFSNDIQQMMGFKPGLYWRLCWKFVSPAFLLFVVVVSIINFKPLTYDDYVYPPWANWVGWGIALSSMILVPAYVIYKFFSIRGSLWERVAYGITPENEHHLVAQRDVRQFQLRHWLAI
Procedure: (§3) Transporters: The binding properties of compounds were evaluated at native, tissue-derived transporters, namely serotonin (5HT) transporter and norepinephrine (NE) transporter, according to protocols described in Owens (1997), the disclosure of which is hereby incorporated by reference in its entirety into this application.
as §1

[7] = molecular target: T6, serotonin (5HT) transporter (Rattus norvegicus, UniProt P31652); assay: Binding at native serotonin transporter (5HT uptake); details: Table 8
T6 construct: evaluated at native, tissue-derived transporters; from tissue
T6 sequence (P31652 whole entry): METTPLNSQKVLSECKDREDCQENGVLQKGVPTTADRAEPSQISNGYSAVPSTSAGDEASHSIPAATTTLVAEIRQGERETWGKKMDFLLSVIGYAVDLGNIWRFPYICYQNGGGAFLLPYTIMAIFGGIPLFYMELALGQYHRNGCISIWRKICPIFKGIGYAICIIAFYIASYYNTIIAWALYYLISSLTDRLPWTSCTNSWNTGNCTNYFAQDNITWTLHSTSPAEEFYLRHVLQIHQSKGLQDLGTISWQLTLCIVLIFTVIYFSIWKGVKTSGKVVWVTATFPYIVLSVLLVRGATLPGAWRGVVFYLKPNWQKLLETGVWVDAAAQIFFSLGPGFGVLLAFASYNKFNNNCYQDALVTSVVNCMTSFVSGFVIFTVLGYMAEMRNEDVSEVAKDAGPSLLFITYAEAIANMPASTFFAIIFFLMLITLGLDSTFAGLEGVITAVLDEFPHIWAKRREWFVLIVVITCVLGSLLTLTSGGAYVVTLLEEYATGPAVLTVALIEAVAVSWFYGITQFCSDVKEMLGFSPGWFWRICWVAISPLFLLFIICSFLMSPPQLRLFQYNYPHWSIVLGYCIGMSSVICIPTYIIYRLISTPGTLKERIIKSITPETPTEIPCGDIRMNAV
Procedure: as §3, §1

[8] = molecular target: T7, rat NPFF1 receptor (Rattus norvegicus, UniProt Q9EP86); assay: Functional assay (agonist potency, intrinsic activity) at cloned rat NPFF1 receptor; type: cell-based; details: Table 7, intrinsic activity
T7 construct: expressed in transfected cells; host or cells: not given
T7 sequence (Q9EP86 whole entry): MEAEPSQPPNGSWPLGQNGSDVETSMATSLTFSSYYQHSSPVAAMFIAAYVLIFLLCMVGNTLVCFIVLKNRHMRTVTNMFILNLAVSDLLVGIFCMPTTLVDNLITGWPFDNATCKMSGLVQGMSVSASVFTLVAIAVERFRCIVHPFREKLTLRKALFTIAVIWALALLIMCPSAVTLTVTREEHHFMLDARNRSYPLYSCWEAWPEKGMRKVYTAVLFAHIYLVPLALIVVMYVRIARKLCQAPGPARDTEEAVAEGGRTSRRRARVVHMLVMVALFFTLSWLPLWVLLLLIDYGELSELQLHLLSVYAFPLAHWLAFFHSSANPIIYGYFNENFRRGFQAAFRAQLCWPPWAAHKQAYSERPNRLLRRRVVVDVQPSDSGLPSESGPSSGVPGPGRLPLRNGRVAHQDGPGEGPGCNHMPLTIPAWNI

[9] = molecular target: T8, human NPFF2 receptor (Homo sapiens, UniProt Q9Y5X5); assay: Functional assay (agonist potency, intrinsic activity) at cloned human NPFF2 receptor; type: cell-based; details: Table 6, intrinsic activity
T8 construct: one of these, B089, was determined to be a full length clone with no point mutations; expressed in transfected cells; host or cells: not given
T8 sequence (Q9Y5X5 103-522): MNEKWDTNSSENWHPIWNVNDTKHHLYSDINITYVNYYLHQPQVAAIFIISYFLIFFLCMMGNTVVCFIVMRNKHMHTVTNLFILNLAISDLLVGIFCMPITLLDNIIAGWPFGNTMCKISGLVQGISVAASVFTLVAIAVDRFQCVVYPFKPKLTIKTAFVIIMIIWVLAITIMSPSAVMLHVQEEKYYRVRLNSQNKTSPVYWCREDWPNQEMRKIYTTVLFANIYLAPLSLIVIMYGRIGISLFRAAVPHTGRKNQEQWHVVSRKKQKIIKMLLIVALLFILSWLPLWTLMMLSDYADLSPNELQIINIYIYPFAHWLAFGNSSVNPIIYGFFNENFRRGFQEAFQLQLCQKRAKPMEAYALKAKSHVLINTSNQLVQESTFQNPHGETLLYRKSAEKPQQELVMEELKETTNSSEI

[10] = system: distension induced contractions of the rat bladder; assay: Distension-induced rhythmic contraction (DIRC) model, micturition reflex in anesthetized rats; type: in vivo
Excerpt: This model is widely considered to be predictive for the actions of drugs to treat human urge incontinence (also refered to as detrusor instability or unstable bladder). Examples of drugs that are active in this model which also are used therapeutically in humans include oxybutynin and baclofen (Morikawa et al, 1992); imipramine and nortriptyline (Pietra et al, 1990); and nifedipine and terodiline (Guarneri et al, 1993).
Female Sprague Dawley rats weighing approximately 300 g were anesthetized with subcutaneous urethane (1.2 g/kg). The trachea was cannulated with PE240 tubing to provide a clear airway throughout the experiment. A midline abdominal incision was made and the left and right ureters were isolated. The ureters were ligated distally (to prevent escape of fluids from the bladder) and cannulated proximally with PE10 tubing. The incision was closed using 4-0 silk sutures, leaving the PE10 lines routed to the exterior for the elimination of urine. The bladder was canulated via the transurethral route using PE50 tubing inserted 2.5 cm beyond the urethral opening. This cannula was secured to the tail using tape and connected to a pressure transducer. To prevent leakage from the bladder, the cannula was tied tightly to the exterior urethral opening using 4-0 silk.
To initiate the micturition reflex, the bladder was first emptied by applying pressure to the lower abdomen, and then filled with normal saline in 100 μl increments (maximum=2 ml) until spontaneous bladder contractions occurred (typically 20-40 mmHg at a rate of one contraction every 2 to 3 minutes. Once a regular rhythm was established, vehicle (saline) or test compounds were administered i.v. to examine their effects on bladder activity. The effect of a compound which inhibited the micturition reflex was expressed as its “disappearance time”, defined as the time between successive bladder contractions in the presence of the test compound minus the time between contractions before compound administration.

[11] = system: distension induced contractions of the rat bladder; details: drugs used therapeutically in humans, from publications; cited from earlier work

SMILES: Cc1nc(NC(=N)N)nc2cc(OCc3ccccc3)ccc12 (as salt: salt) [Compound 1006A, N-[7-(benzyloxy)-4-methyl-2-quinazolinyl]guanidine]
- melting point: 215 to 217 °C (dec.)

SMILES: CCc1ccc2nc(NC(=N)N)nc(C)c2c1 [Compound 1003A, N-(6-ethyl-4-methyl-2-quinazolinyl)guanidine]
- Ki [1]: 19.5 µM
- Ki [2]: 1.97 µM
- rNPFF2 IA [3]: 83% NPFF
- Ki [4]: 8.45 µM
- Ki [5]: 31.8 µM

SMILES: CCc1ccc2c(C)nc(NC(=N)N)nc2c1 [Compound 1020A, N-(7-ethyl-4-methyl-2-quinazolinyl)guanidine]
- Ki [6]: 8.02 µM
- Ki [7]: 5.59 µM
- Ki [2]: 1.17 µM
- rNPFF2 IA [3]: 90% NPFF
- Ki [4]: 4.13 µM
- Ki [5]: 20.9 µM

SMILES: CCCCCc1ccc2nc(NC(=N)N)nc(C)c2c1 [Compound 2001A, N-(4-methyl-6-pentyl-2-quinazolinyl)guanidine]
- Ki [6]: 1.16 µM
- Ki [1]: 8.13 µM
- Ki [7]: 0.962 µM
- rNPFF1 IA [8]: 71% NPFF
- Ki [2]: 0.808 µM
- rNPFF2 IA [3]: 103% NPFF
- hNPFF2 IA [9]: 84% NPFF
- Ki [4]: 1.91 µM
- Ki [5]: 7.41 µM

SMILES: Cc1ccc2c(C)cc(NC(=N)N)nc2c1 [Compound 4006A, N-(4,7-dimethyl-2-quinolinyl)guanidine]
- Ki [6]: 12.4 µM
- Ki [7]: 8.79 µM
- inhibition of distention induced contractions of the rat bladder ([10]; 3 mg/kg, i.v.): complete inhibition
- time for which inhibition of bladder activity persisted ([10]; i.v. administration, anesthetized rat (figure legends)): 12 min
- rNPFF2 IA [3]: 32% NPFF

SMILES: NCC(CC(=O)O)c1ccc(Cl)cc1 (stereo not drawn) [baclofen]
- activity in the DIRC model [11]: active

SMILES: CN(C)CCCN1c2ccccc2CCc2ccccc21 [imipramine]
- activity in the DIRC model [11]: active

SMILES: CNCCC=C1c2ccccc2CCc2ccccc21 [nortriptyline]
- activity in the DIRC model [11]: active

SMILES: CCN(CC)CC#CCOC(=O)C(O)(c1ccccc1)C1CCCCC1 (stereo not drawn) [oxybutynin]
- activity in the DIRC model [11]: active

SMILES: CC(CC(c1ccccc1)c1ccccc1)NC(C)(C)C (stereo not drawn) [terodiline]
- activity in the DIRC model [11]: active

Other lines, results leading:

- melting point: 246 to 248 °C (dec.)
SMILES: Cc1cc2nc(NC(=N)N)nc(C)c2cc1O (as salt: salt) [Compound 1017A, N-(6-hydroxy-4,7-dimethyl-2-quinazolinyl)guanidine]

- rNPFF1 IA [8]: 19% NPFF
- rNPFF2 IA [3]: 81% NPFF
- melting point: 195 to 198 °C (dec.)
SMILES: Cc1nc(NC(=N)N)nc2cc(C(C)(C)C)ccc12 [Compound 1022A, N-[7-(tert-butyl)-4-methyl-2-quinazolinyl]guanidine]

- rNPFF2 IA [3]: 35% NPFF
- hNPFF2 IA [9]: 43% NPFF
SMILES: Cc1nc(NC(=N)N)nc2cc(-c3ccccc3)ccc12 [Compound 1023A, N-(4-methyl-7-phenyl-2-quinazolinyl)guanidine]

- rNPFF2 IA [3]: 74% NPFF
- melting point: 295 to 298 °C (dec.)
SMILES: Cc1nc(NC(=N)N)nc2cc3c(cc12)CCC3 [Compound 1038A, N-(4-methyl-7,8-dihydro-6H-cyclopenta[g]quinazolin-2-yl)guanidine]

- Ki [1]: 7.62 µM
- rNPFF1 IA [8]: 51% NPFF
- Ki [2]: 0.713 µM
- rNPFF2 IA [3]: 92% NPFF
- Ki [4]: 3.33 µM
- Ki [5]: 12.9 µM
SMILES: CCC(C)c1ccc2nc(NC(=N)N)nc(C)c2c1 (stereo not drawn) [Compound 2002A, N-(6-sec-butyl-4-methyl-2-quinazolinyl)guanidine]

- Ki [1]: 12.8 µM
- Ki [2]: 0.267 µM
- rNPFF2 IA [3]: 84% NPFF
- hNPFF2 IA [9]: 69% NPFF
- Ki [4]: 1.4 µM
- Ki [5]: 10.4 µM
SMILES: CCc1ccc2nc(NC(=N)N)cc(C)c2c1 [Compound 4002A, N-(6-ethyl-4-methyl-2-quinolinyl)guanidine]

- rNPFF1 IA [8]: 41% NPFF
- rNPFF2 IA [3]: 90% NPFF
- hNPFF2 IA [9]: 75% NPFF
SMILES: CCCCCc1ccc2nc(NC(=N)N)cc(C)c2c1 [Compound 5002A, N-(4-methyl-6-pentyl-2-quinolinyl)guanidine]

- rNPFF1 IA [8]: 27% NPFF
- rNPFF2 IA [3]: 57% NPFF
- hNPFF2 IA [9]: 45% NPFF
SMILES: CCCCCCc1ccc2nc(NC(=N)N)cc(C)c2c1 [Compound 5003A, N-(6-hexyl-4-methyl-2-quinolinyl)guanidine]
